Data: patent publication US7138361B2, “Herbicidal heterocycles” (E. I. du Pont de Nemours and Company, priority 2000, dated 2006)

Columns and labels:
Format in all cases: in vivo
[1] = test system: crabgrass (Digitaria sanguinalis); experiment: Test B preemergence
How it was run: (§1)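 Post-treatment, species sat 13–15 days under greenhouse conditions before visual scoring against controls, 0 (no effect) through 100 (complete control). Application preemergence to sown seeds or postemergence at 1- to 4-leaf stage, using a non-phytotoxic solvent/surfactant formulation.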

[2] = test system: barnyardgrass (Echinochloa crus-galli); experiment: Test B preemergence
How it was run: as §1

[3] = test system: velvetleaf (Abutilon theophrasti); experiment: Test B preemergence
How it was run: as §1

[4] = test system: pigweed (Amaranthus retroflexus); experiment: Test B preemergence
How it was run: as §1

[5] = test system: lambsquarters (Chenopodium album); experiment: Test B preemergence
How it was run: as §1

[6] = test system: Surinam grass (Brachiaria decumbens); experiment: Test B preemergence
How it was run: as §1

corn (Zea mays) [7] = experiment: Test B preemergence
How it was run: as §1

rice (Oryza saliva) = experiment: Test B preemergence
How it was run: as §1

[8] = test system: morning glory (Ipomoea hederacea); experiment: Test B preemergence
How it was run: as §1

[9] = test system: giant foxtail (Setaria faberii); experiment: Test B preemergence
How it was run: as §1

[10] = test system: cocklebur (Xanthium strumarium); experiment: Test B preemergence
How it was run: as §1

Sunflower = experiment: Test C preemergence; details: Rate 500 g/ha, visual evaluation after 12 to 14 days
Nightshade = experiment: Test C preemergence; details: Rate 500 g/ha, visual evaluation after 12 to 14 days
[11] = test system: crabgrass (Digitaria sanguinalis); experiment: Test B postemergence; details: 13 to 15 days
How it was run: as §1

[12] = test system: barnyardgrass (Echinochloa crus-galli); experiment: Test B postemergence; details: 13 to 15 days
How it was run: as §1

[13] = test system: blackgrass (Alopecurus myosuroides); experiment: Test B postemergence; details: 13 to 15 days
How it was run: as §1

[14] = test system: wheat (Triticum aestivum); experiment: Test B postemergence; details: Rate 500 g/ha, scale 0 to 100, 0 is no effect, 100 is complete control, 13 to 15 days
How it was run: as §1

[15] = test system: velvetleaf (Abutilon theophrasti); experiment: Test B postemergence; details: Rate 500 g/ha, scale 0 to 100, 0 is no effect, 100 is complete control, 13 to 15 days
How it was run: as §1

[16] = test system: pigweed (Amaranthus retroflexus); experiment: Test B postemergence; details: Rate 500 g/ha, scale 0 to 100, 0 is no effect, 100 is complete control, 13 to 15 days
How it was run: as §1

[17] = test system: lambsquarters (Chenopodium album); experiment: Test B postemergence; details: Rate 500 g/ha, scale 0 to 100, 0 is no effect, 100 is complete control, 13 to 15 days
How it was run: as §1

wild oat (Avena fatua) = experiment: Test B postemergence; details: Rate 500 g/ha, scale 0 to 100, 0 is no effect, 100 is complete control, 13 to 15 days
How it was run: as §1

[18] = test system: Surinam grass (Brachiaria decumbens); experiment: Test B postemergence; details: 13 to 15 days
How it was run: as §1

corn (Zea mays) [19] = experiment: Test B postemergence; details: 13 to 15 days
How it was run: as §1

[20] = test system: morning glory (Ipomoea hederacea); experiment: Test B postemergence; details: Rate 500 g/ha, scale 0 to 100, 0 is no effect, 100 is complete control, 13 to 15 days
How it was run: as §1

[21] = test system: giant foxtail (Setaria faberii); experiment: Test B postemergence; details: 13 to 15 days
How it was run: as §1

[22] = test system: cocklebur (Xanthium strumarium); experiment: Test B postemergence; details: 13 to 15 days
How it was run: as §1

[23] = test system: smallflower flatsedge (Cyperus difformis); experiment: Test C flooded paddy test; details: for Flatsedge plant response rating: Flooded Paddy, scale 0 to 100, 0 no effect, 100 complete control; for Plant response rating, Flatsedge: flooded paddy test, scale 0 to 100 (0 no effect, 100 complete control)
How it was run: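 2-leaf-stage plants, flooded paddy; treated; greenhouse 12–14 days; compared with controls by eye; rated 0–100 (0 none, 100 complete control).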

[24] = Preemergence, Rate 500 g/ha, scale 0 to 100, 0 no effect, 100 complete control
[25] = preemergence, Rate 125 g/ha, scale of 0 to 100 where 0 is no effect and 100 is complete control, 13 to 15 days
[26] = Rate 125 g/ha, scale 0 (no effect) to 100 (complete control)
[27] = Rate 500 g/ha, scale 0 to 100, 0 is no effect, 100 is complete control

## CCC(C)c1ccn(C2CCN(c3cccc(OC)c3)C2=O)n1 (stereo not drawn) [Compound 95]
[1]; [24]
  Plant response rating, Crabgrass: 100
[1]; [25]
  Plant response rating, Crabgrass: 100
[2]; [24]
  Plant response rating, Barnyardgrass: 100
[2]; [25]
  Plant response rating, Barnyardgrass: 90
[3]; [24]
  Plant response rating, Velvetleaf: 50
[3]; [25]
  Plant response rating, Velvetleaf: 0
[4]; [24]
  Plant response rating, Pigweed: 100
[4]; [25]
  Plant response rating, Pigweed: 100
[5]; [24]
  Plant response rating, Lambsquarters: 100
[5]; [25]
  Plant response rating, Lambsquarters: 100
[6]; [24]
  Plant response rating, Surinam grass: 90
[6]; [25]
  Plant response rating, Surinam grass: 60
Corn (Zea mays) [7]; [24]
  Plant response rating, Corn: 50
Corn (Zea mays) [7]; [25]
  Plant response rating, Corn: 20
Rice (Oryza saliva); [24]
  Plant response rating, Rice: 100
Rice (Oryza saliva); [25]
  Plant response rating, Rice: 90
[8]; [24]
  Plant response rating, Morningglory: 60
[8]; [25]
  Plant response rating, Morningglory: 0
[9]; [24]
  Plant response rating, Foxtail, Giant: 100
[9]; [25]
  Plant response rating, Foxtail, Giant: 100
[10]; [24]
  Plant response rating, Cocklebur: 60
[10]; [25]
  Plant response rating, Cocklebur: 0
Sunflower
  Plant response rating (0 to 100), Sunflower: 10
Nightshade
  Plant response rating (0 to 100), Nightshade: 45
[11]; [26]
  Plant response rating, Crabgrass: 0
[11]; [27]
  Plant response rating, Crabgrass: 20
[12]; [26]
  Plant response rating, Barnyardgrass: 0
[12]; [27]
  Plant response rating, Barnyardgrass: 30
[13]; [26]
  Plant response rating, Blackgrass: 0
[13]; [27]
  Plant response rating, Blackgrass: 0
[14]
  Plant response rating, Wheat: 0
[15]
  Plant response rating, Velvetleaf: 0
[16]
  Plant response rating, Pigweed: 60
[17]
  Plant response rating, Lambsquarters: 90
Wild oat (Avena fatua)
  Plant response rating, Wild Oat: 0
[18]; [26]
  Plant response rating, Surinam grass: 0
[18]; [27]
  Plant response rating, Surinam grass: 0
Corn (Zea mays) [19]; [26]
  Plant response rating, Corn: 0
Corn (Zea mays) [19]; [27]
  Plant response rating, Corn: 0
[20]
  Plant response rating, Morningglory: 20
[21]; [26]
  Plant response rating, Foxtail, Giant: 0
[21]; [27]
  Plant response rating, Foxtail, Giant: 0
[22]; [26]
  Plant response rating, Cocklebur: 0
[22]; [27]
  Plant response rating, Cocklebur: 20
[23]; Rate 250 g/ha
  Flatsedge plant response rating: 100
[23]; Rate 500 g/ha
  Flatsedge plant response rating: 100
[23]; Rate 62 g/ha
  Plant response rating, Flatsedge: 90
[23]; Rate 125 g/ha
  Plant response rating, Flatsedge: 100

## CCC(CC)c1ccn(C2CCN(c3cccc(OC)c3)C2=O)n1 (stereo not drawn) [Compound 96]
[1]; [24]
  Plant response rating, Crabgrass: 100
[1]; [25]
  Plant response rating, Crabgrass: 100
[2]; [24]
  Plant response rating, Barnyardgrass: 100
[2]; [25]
  Plant response rating, Barnyardgrass: 100
[3]; [24]
  Plant response rating, Velvetleaf: 50
[3]; [25]
  Plant response rating, Velvetleaf: 0
[4]; [24]
  Plant response rating, Pigweed: 100
[4]; [25]
  Plant response rating, Pigweed: 100
[5]; [24]
  Plant response rating, Lambsquarters: 100
[5]; [25]
  Plant response rating, Lambsquarters: 100
[6]; [24]
  Plant response rating, Surinam grass: 80
[6]; [25]
  Plant response rating, Surinam grass: 50
Corn (Zea mays) [7]; [24]
  Plant response rating, Corn: 20
Corn (Zea mays) [7]; [25]
  Plant response rating, Corn: 0
Rice (Oryza saliva); [24]
  Plant response rating, Rice: 100
Rice (Oryza saliva); [25]
  Plant response rating, Rice: 70
[8]; [24]
  Plant response rating, Morningglory: 80
[8]; [25]
  Plant response rating, Morningglory: 0
[9]; [24]
  Plant response rating, Foxtail, Giant: 100
[9]; [25]
  Plant response rating, Foxtail, Giant: 100
[10]; [24]
  Plant response rating, Cocklebur: 30
[10]; [25]
  Plant response rating, Cocklebur: 20
Sunflower
  Plant response rating (0 to 100), Sunflower: 50
Nightshade
  Plant response rating (0 to 100), Nightshade: 80
[11]; [26]
  Plant response rating, Crabgrass: 20
[11]; [27]
  Plant response rating, Crabgrass: 70
[12]; [26]
  Plant response rating, Barnyardgrass: 0
[12]; [27]
  Plant response rating, Barnyardgrass: 90
[13]; [26]
  Plant response rating, Blackgrass: 0
[13]; [27]
  Plant response rating, Blackgrass: 0
[14]
  Plant response rating, Wheat: 0
[15]
  Plant response rating, Velvetleaf: 10
[16]
  Plant response rating, Pigweed: 90
[17]
  Plant response rating, Lambsquarters: 90
Wild oat (Avena fatua)
  Plant response rating, Wild Oat: 0
[18]; [26]
  Plant response rating, Surinam grass: 0
[18]; [27]
  Plant response rating, Surinam grass: 0
Corn (Zea mays) [19]; [26]
  Plant response rating, Corn: 0
Corn (Zea mays) [19]; [27]
  Plant response rating, Corn: 0
[20]
  Plant response rating, Morningglory: 50
[21]; [26]
  Plant response rating, Foxtail, Giant: 0
[21]; [27]
  Plant response rating, Foxtail, Giant: 40
[22]; [26]
  Plant response rating, Cocklebur: 10
[22]; [27]
  Plant response rating, Cocklebur: 20
[23]; Rate 250 g/ha
  Flatsedge plant response rating: 100
[23]; Rate 500 g/ha
  Flatsedge plant response rating: 100
[23]; Rate 62 g/ha
  Plant response rating, Flatsedge: 90
[23]; Rate 125 g/ha
  Plant response rating, Flatsedge: 90
